Laboratory results reported in patent publication US11999727B2 (Tango Therapeutics, Inc., priority 2020, dated 2024).
pIC50: −log10 of the molar value.

Key:
PRMT5 [1] = molecular target: T1, PRMT5 (Homo sapiens, UniProt O14744); experiment: PRMT5 biochemical IC50 assay with no cofactor; settings: PRMT5, no cofactor
T1 construct: purchased Viva (custom protein)
Text: Table 1 indicates IC50 values (μM) against PRMT5 for exemplary compounds in the presence of SAM as cofactor, with no cofactor, and with MTA as cofactor, respectively (columns 4-6). […] Ki values can be calculated from the IC50 values as described in the Examples section. As detailed in the Examples section, for the assay performed in the presence of SAM, IC50=Ki×1.5 (Ki=IC50/1.5).

[2] = tested on: HAP1 MTAP-intact cell line; experiment: SDMA in-cell western assay, HAP1 MTAP-intact; format: cell-based; settings: Homo sapiens, HAP1, SDMA in-cell western, HAP1 MTAP-intact; read-out: MTAP HAP1 intact IC50
Summary of the method: (§1)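 Readout: in-cell western detection of SDMA. Cells: HAP1 expressing endogenous MTAP and an MTAP-null HAP1 counterpart. Output: IC50.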

PRMT5 [3] = molecular target: T1, PRMT5; experiment: PRMT5 biochemical IC50 assay with MTA as cofactor; settings: PRMT5, MTA as cofactor; read-out: MTA IC50
[4] = tested on: HAP1 MTAP-deleted cell line; experiment: Viability assay, MTAP-deleted cell line; format: cell-based; settings: Homo sapiens, read-out: HAP1 MTAP deleted viability
Text: Table 1 additionally indicates IC50 values in a viability assay for the MTAP-deleted cell line (column 10), indicating the effect of treatment with compound on cell survival.

[5] = tested on: HAP1 MTAP-deleted cell line; experiment: SDMA in-cell western assay, HAP1 MTAP-deleted; format: cell-based; settings: for pIC50: Homo sapiens, HAP1, SDMA in-cell western, HAP1 MTAP-deleted; for MTAP intact/deleted ratio: IC50 ratio HAP1 MTAP-intact / HAP1 MTAP-deleted, SDMA in-cell western
Summary of the method: as §1

PRMT5 [6] = molecular target: T1, PRMT5; experiment: PRMT5 biochemical IC50 assay with SAM as cofactor; settings: PRMT5, SAM as cofactor; read-out: SAM IC50
[7] = read-out: No Cofactor/ rel IC50
[8] = HAP1, viability assay, MTAP-deleted cell line
[9] = read-out: HAP 1 MTAP deleted IC50
[10] = HAP1, viability assay, HAP1 MTAP-deleted
[11] = read-out: HAP1 MTAP deleted IC50
[12] = HAP1, viability, HAP1 MTAP-deleted cell line

T1 sequence (O14744 whole entry): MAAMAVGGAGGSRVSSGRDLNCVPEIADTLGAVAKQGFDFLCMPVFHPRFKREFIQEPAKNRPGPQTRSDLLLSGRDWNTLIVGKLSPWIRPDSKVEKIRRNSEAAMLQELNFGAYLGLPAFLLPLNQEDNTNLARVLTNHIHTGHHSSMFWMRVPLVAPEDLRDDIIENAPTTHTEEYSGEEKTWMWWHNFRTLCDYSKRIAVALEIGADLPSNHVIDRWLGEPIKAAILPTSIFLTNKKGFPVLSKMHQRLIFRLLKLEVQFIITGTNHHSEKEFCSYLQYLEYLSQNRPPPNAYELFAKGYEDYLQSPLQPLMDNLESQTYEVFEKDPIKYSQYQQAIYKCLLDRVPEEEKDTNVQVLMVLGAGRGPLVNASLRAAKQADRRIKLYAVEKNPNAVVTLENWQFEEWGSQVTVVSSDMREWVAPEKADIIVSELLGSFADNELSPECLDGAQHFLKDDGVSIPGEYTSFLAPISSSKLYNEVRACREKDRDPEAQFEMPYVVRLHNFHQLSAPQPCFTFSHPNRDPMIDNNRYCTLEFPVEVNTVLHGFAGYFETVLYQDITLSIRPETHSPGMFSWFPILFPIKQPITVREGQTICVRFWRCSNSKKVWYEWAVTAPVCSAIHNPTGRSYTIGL
T1 sequence (Q9BQA1 whole entry partner): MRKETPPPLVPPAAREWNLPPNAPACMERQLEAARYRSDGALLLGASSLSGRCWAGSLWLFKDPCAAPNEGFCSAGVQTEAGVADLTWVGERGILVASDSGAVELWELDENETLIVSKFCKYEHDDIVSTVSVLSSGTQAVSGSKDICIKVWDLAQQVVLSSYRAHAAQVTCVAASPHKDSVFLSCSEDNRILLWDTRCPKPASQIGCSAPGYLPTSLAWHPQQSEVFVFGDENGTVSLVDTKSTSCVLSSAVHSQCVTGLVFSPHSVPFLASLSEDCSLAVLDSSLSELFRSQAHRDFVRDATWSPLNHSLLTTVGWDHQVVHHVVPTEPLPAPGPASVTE

| pIC50 (PRMT5 [1]; [7]) | pIC50 [2] | pIC50 (PRMT5 [3]) | pIC50 [5, 9] | pIC50 (PRMT5 [6]) | pIC50 (PRMT5 [1]; read-out: No Cofactor/rel IC50) | pIC50 [5, 11] | SMILES | pIC50 [4, 8] | MTAP intact/deleted ratio [5] | pIC50 [4, 10] | pIC50 [4, 12] | pIC50 ([4]; HAP1, viability IC50, MTAP-deleted cell line) |
| --- | --- | --- | --- | --- | --- | --- | --- | --- | --- | --- | --- | --- |
| > 7.30 | 6.00 to 7.00 | > 7.30 | > 7.00 | 6.30 to 7.30 |  |  | Cc1cc(NC(=O)C(=O)N2C[C@H](C)CC[C@H]2c2cccs2)cnc1N (single isomer, unassigned) [Compound 115] | > 6.00 | A (an IC50 ratio greater than or equal to 10 fold) |  |  |  |
|  | < 6.00 | < 6.30 |  | < 6.30 | < 6.30 | < 6.00 | Cc1ncc(NC(=O)C(=O)N2C[C@@H](C)CC[C@@H]2c2ccc3c(c2)CCC(=O)N3)cc1Cl (single isomer, unassigned) [Compound 727] |  | C (an IC50 ratio of less than 3 fold) | < 5.00 |  |  |
|  | < 6.00 | < 6.30 | < 6.00 | < 6.30 | < 6.30 |  | Cc1ncc(NC(=O)C(=O)N2C[C@@H](C)CC[C@@H]2c2ccc3c(c2)CCC(=O)N3)cc1C(F)F (single isomer, unassigned) [Compound 903] | < 5.00 | B (an IC50 ratio greater than or equal to 3 fold but lower than 10 fold) |  |  |  |
| 6.30 to 7.30 | < 6.00 | > 7.30 | > 7.00 | 6.30 to 7.30 |  |  | CC(=O)N1CCC(c2cccc(C3CCCCN3C(=O)C(=O)Nc3cnc(N)c(C)c3)c2)CC1 (racemic) [Compound 95, 2-(2-(3-(1-acetylpiperidin-4-yl)phenyl)piperidin-1-yl)-N-(6-amino-5-methylpyridin-3-yl)-2-oxoacetamide] | 5.00 to 6.00 | A (an IC50 ratio greater than or equal to 10 fold) |  |  |  |
|  | < 6.00 | < 6.30 | < 6.00 | < 6.30 | < 6.30 |  | Cc1cc(NC(=O)C(=O)N2C[C@@H](C)CC[C@@H]2c2cccc3[nH]cnc23)cnc1N (single isomer, unassigned) [Compound 964] | < 5.00 | C (an IC50 ratio of less than 3 fold) |  |  |  |
|  | < 6.00 | < 6.30 | 6.00 to 7.00 | < 6.30 | < 6.30 |  | Cc1cc(NC(=O)C(=O)N2C[C@@H](C)CC[C@@H]2c2ccc3c(cnn3C)c2)cnc1N (single isomer, unassigned) [Compound 1037] | < 5.00 | A (an IC50 ratio greater than or equal to 10 fold) |  |  |  |
| > 7.30 | 6.00 to 7.00 | > 7.30 | > 7.00 | 6.30 to 7.30 |  |  | CCc1cc(NC(=O)C(=O)N2C[C@@H](C)CC[C@@H]2c2cccc(OC[C@@H]3CCCN3C)c2)cnc1N [Compound 1362, N-(6-amino-5-ethylpyridin-3-yl)-2-((2R,5S)-5-methyl-2-(3-((1-methylpyrrolidin-2-yl)methoxy)phenyl)piperidin-1-yl)-2-oxoacetamide] |  | A (an IC50 ratio greater than or equal to 10 fold) |  | > 6.00 |  |
|  | < 6.00 | < 6.30 | < 6.00 | < 6.30 | < 6.30 |  | C[C@@H]1CC[C@@H](c2ccc3sccc3c2)N(C(=O)C(=O)Nc2cncc(C(N)=O)c2)C1 (single isomer, unassigned) [Compound 586] |  | B (an IC50 ratio greater than or equal to 3 fold but lower than 10 fold) |  |  | < 5.00 |
| > 7.30 | > 7.00 | > 7.30 | > 7.00 | > 7.30 |  |  | Cc1ncc(NC(=O)C(=O)N2C[C@@H](C)CC[C@@H]2c2ccc3sc(C4CCN(C)CC4)nc3c2)cc1C1COC1 [Compound 1309, 2-((2R,5S)-5-methyl-2-(2-(1-methylpiperidin-4-yl)benzo[d]thiazol-5-yl)piperidin-1-yl)-N-(6-methyl-5-(oxetan-3-yl)pyridin-3-yl)-2-oxoacetamide] |  | A (an IC50 ratio greater than or equal to 10 fold) |  | > 6.00 |  |
|  | < 6.00 | > 7.30 |  | 6.30 to 7.30 | 6.30 to 7.30 | 6.00 to 7.00 | COc1cc([C@@H]2CC[C@@H](C)CN2C(=O)C(=O)Nc2cncc(C(N)=O)c2)ccc1F (racemic) [Compound 222, rac-5-{2-[(2R,5S)-2-(4-Fluoro-3-methoxyphenyl)-5-methylpiperidin-1-yl]-2-oxoacetamido}pyridine-3-carboxamide] | 5.00 to 6.00 | A (an IC50 ratio greater than or equal to 10 fold) |  |  |  |
| < 6.30 | < 6.00 | < 6.30 | < 6.00 | < 6.30 |  |  | C[C@H]1CC[C@H](c2cccnc2)N(C(=O)C(=O)Nc2cncc(C(N)=O)c2)C1 (single isomer, unassigned) [Compound 105] | < 5.00 | C (an IC50 ratio of less than 3 fold) |  |  |  |
| > 7.30 | > 7.00 | > 7.30 | > 7.00 | 6.30 to 7.30 |  |  | CCc1cc(NC(=O)C(=O)N2C[C@@H](C)CC[C@@H]2c2ccc3sc(C4CCN(CC)CC4)nc3c2)cnc1N [Compound 1252, N-(6-amino-5-ethylpyridin-3-yl)-2-((2R,53)-2-(2-(1-ethylpiperidin-4-yl)benzo[d]thiazol-5-yl)-5-methylpiperidin-1-yl)-2-oxoacetamide] |  | A (an IC50 ratio greater than or equal to 10 fold) |  | > 6.00 |  |
|  | < 6.00 | > 7.30 |  | 6.30 to 7.30 | > 7.30 | > 7.00 | COc1ncc(NC(=O)C(=O)N2C[C@@H](C)CC[C@@H]2c2ccc(C(N)=O)s2)cc1C(N)=O (single isomer, unassigned) [Compound 837] |  | A (an IC50 ratio greater than or equal to 10 fold) | > 6.00 |  |  |
|  | < 6.00 | > 7.30 |  | 6.30 to 7.30 | > 7.30 | > 7.00 | COc1ncc(NC(=O)C(=O)N2C[C@@H](C)CC[C@@H]2c2cccs2)cc1C(N)=O (single isomer, unassigned) [Compound 303] | > 6.00 | A (an IC50 ratio greater than or equal to 10 fold) |  |  |  |
|  | < 6.00 | 6.30 to 7.30 |  | 6.30 to 7.30 | 6.30 to 7.30 | 6.00 to 7.00 | Cc1cc(NC(=O)C(=O)N2CCC(C(=O)C(C)C)C[C@H]2c2ccc3c(c2)CCC(=O)N3)cnc1N (mixture of isomers) [Compound 854, N-(6-Amino-5-methyl-3-pyridyl)-2-[(2S)-4-(2-methylpropanoyl)-2-(2-oxo-3,4-dihydro-1H-quinolin-6-yl)-1-piperidyl]-2-oxo-acetamide] |  | A (an IC50 ratio greater than or equal to 10 fold) | 5.00 to 6.00 |  |  |

| SMILES | pIC50 (PRMT5 [1]; [7]) | pIC50 [2] | pIC50 (PRMT5 [3]) | pIC50 [5, 9] | pIC50 (PRMT5 [6]) | pIC50 (PRMT5 [1]; read-out: No Cofactor/rel IC50) | pIC50 [5, 11] | pIC50 [4, 8] | MTAP intact/deleted ratio [5] | pIC50 [4, 10] | pIC50 [4, 12] | pIC50 ([4]; HAP1, viability IC50, MTAP-deleted cell line) |
| --- | --- | --- | --- | --- | --- | --- | --- | --- | --- | --- | --- | --- |
| [2H][C@]1(c2ccc(F)cc2)CC[C@H](C)CN1C(=O)C(=O)Nc1cncc(C(N)=O)c1 (racemic) [Compound 1008, 5-(2-(2-(4-fluorophenyl)-5-methylpiperidin-1-yl-2-d)-2-oxoacetamido)nicotinamide] |  | < 6.00 | 6.30 to 7.30 | 6.00 to 7.00 | 6.30 to 7.30 | 6.30 to 7.30 |  | 5.00 to 6.00 | A (an IC50 ratio greater than or equal to 10 fold) |  |  |  |
